Assay results taken from patent publication US20220162163A1, “ALANINE-BASED MODULATORS OF PROTEOLYSIS AND ASSOCIATED METHODS OF USE” (Arvinas Operations, Inc., priority 2015, published 2022).

Key:
Assay type in all cases: cell-based
EZH2 = target: T1, EZH2 (Homo sapiens, UniProt Q15910); experiment: Cellular assay of EZH2 degradation (MDA-MB-231 cells, Western blot); conditions: EZH2, MDA-MB-231 cells, PROTAC concentration 3 μM, relative to DMSO control
T1 construct: endogenous in cells; host or cells: MDA-MB-231
Experimental: Protocol of the Cellular Assay of EZH2 Degradation (MDA-MB-231 Cells, Western Blot).
MDA-MB-231 cells were plated at 10,000 cells per well in 6 well plates, 2 ml/well in DMEM+10% Fetal Bovine Serum. Cells were allowed to grow for 3 days at 37 degrees C. Cells were dosed with PROTACs. On day 3 and day 7 after dosing, cells were harvested and lysed with RIPA buffer. Lysed cells were transferred to eppendorf tubes, and each lysate was sonicated and then spinned in microfuge for 15 minutes at 20,000×g at 4 degrees C. Supernatant was transferred to a clean tube, and protein concentration was quantitated using the Pierce BCA Protein Assay kit (cat #23225). Lysate concentrations were adjusted to 1 microgram/microliter in lysis buffer. For Western blot samples were loaded in 4×LDS buffer, 10 microliters/lane, onto Noxex NuPage 4-12% Bis-Tris Midi Gel […]×26 well.
Gels were run on BioRad power source Model 1000/500, at 200V constant voltage for 1 hour. Gels were then transferred onto a nitrocellulose membrane using an iBlot2 transfer apparatus from Life Technologies. Transfers were done on Program 0 and blocked for 1 hour in TBS-T (Tris Buffered Saline with 0.05% Tween 20)+5% BSA (Bovine Serum Albumin). Block solution was decanted, and the primary antibody solutions were added (EZH2-Cell Signaling #5246S; tri-methyl-Histone H3-Cell Signaling #9733S; Histone H3-Cell Signaling #4499; all diluted 1:1000 in 20 ml TBS-T+5% BSA). The preparation was placed in cold room (4 degrees C.) overnight on rocker platform, after which the antibody solution was decanted. The preparation was washed 3 times in TBS-T for 10 minutes each, and anti-rabbit secondary antibody (Cell Signaling #7074S), diluted 1:20,000 in TBS-T+5% BSA, was added. This was followed by incubating for 1 hour at room temperature with gentle rocking and washing 3 times in TBS-T. To develop blots SuperSignal™ West Femto Maximum Sensitivity Substrate (Life Technologies Catalog number: 34095) solution was applied for 5 minutes. Blots were imaged on BioRad ChemiDoc Imager using the “Chemi Hi Sensitivity” protocol. Bands were quantitated using Image Lab software v 5.2.1.

JNK2 = target: T2, JNK2 (Homo sapiens, UniProt P45984); experiment: Cellular assay of JNK degradation (A549 cells, Western blot), JNK2; conditions: for JNK2 degradation range: PROTAC concentration 1 μM, relative to DMSO control
T2 construct: A549 lung adenocarcinoma cells were purchased from ATCC and cultured in RPMI1640 Medium; endogenous in cells; host or cells: A549
Experimental: (§1) Protocol of the cellular assay of JNK degradation (A549 cells, Western blot). A549 lung adenocarcinoma cells were purchased from ATCC and cultured in RPMI1640 Medium (Gibco) supplemented with 10% Fetal Bovine Serum (Gibco). […] Cells were stimulated with PMA (Phorbol 12-myristate 13-acetate, Sigma) for 1 hour before harvesting. Cells were lysed in Cell Signaling lysis buffer supplemented with protease inhibitors (Thermo). The lysates were centrifuged at 20,000×g for 15 minutes to clarify, and protein concentration was determined by BCA (Pierce). Equal amounts of protein (5 micrograms) were separated by SDS-PAGE and transferred onto nitrocellulose membranes. The mermbranes were probed with antibodies against SAPK/JNK (Cell Signaling #9252), phospho-c-Jun (Cell Signaling #3270), MDM2 (Sigma M4308) and p53 (Cell Signaling #2527). HRP-conjugated anti-rabbit and anti-mouse secondary antibodies were from Cell Signaling. The bands were visualized with SuperSignal West Femto Substrate (Thermo). Quantitation was done using Image Lab Software v5.2.1.

JNK1 = target: T3, JNK1 (Homo sapiens, UniProt P45983); experiment: Cellular assay of JNK degradation (A549 cells, Western blot), JNK1; conditions: for JNK1 degradation range: PROTAC concentration 1 μM, relative to DMSO control; for DC50: read-out: JNK1 DC50 range
T3 construct: A549 lung adenocarcinoma cells were purchased from ATCC and cultured in RPMI1640 Medium; endogenous in cells; host or cells: A549
Experimental: as §1

T1 sequence (Q15910 whole entry): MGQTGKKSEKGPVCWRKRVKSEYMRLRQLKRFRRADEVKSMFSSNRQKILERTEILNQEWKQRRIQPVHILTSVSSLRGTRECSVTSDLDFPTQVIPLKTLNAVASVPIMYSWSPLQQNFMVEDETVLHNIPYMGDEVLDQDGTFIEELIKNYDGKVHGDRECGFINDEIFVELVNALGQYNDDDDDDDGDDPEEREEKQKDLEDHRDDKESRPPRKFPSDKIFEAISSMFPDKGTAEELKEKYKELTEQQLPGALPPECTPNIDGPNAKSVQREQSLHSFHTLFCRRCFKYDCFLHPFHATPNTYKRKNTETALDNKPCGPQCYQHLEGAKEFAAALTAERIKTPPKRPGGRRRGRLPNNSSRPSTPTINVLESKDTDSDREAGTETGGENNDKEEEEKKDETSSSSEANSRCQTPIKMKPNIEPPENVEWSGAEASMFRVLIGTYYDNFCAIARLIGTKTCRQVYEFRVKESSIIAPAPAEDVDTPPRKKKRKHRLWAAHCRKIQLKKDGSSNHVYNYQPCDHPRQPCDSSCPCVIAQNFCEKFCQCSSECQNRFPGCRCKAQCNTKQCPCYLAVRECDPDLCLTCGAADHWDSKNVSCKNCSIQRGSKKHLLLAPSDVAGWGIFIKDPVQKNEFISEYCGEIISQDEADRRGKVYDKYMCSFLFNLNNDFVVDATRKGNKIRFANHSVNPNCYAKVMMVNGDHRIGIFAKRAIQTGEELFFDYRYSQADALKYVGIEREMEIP
T1 sequence (O75530 whole entry partner): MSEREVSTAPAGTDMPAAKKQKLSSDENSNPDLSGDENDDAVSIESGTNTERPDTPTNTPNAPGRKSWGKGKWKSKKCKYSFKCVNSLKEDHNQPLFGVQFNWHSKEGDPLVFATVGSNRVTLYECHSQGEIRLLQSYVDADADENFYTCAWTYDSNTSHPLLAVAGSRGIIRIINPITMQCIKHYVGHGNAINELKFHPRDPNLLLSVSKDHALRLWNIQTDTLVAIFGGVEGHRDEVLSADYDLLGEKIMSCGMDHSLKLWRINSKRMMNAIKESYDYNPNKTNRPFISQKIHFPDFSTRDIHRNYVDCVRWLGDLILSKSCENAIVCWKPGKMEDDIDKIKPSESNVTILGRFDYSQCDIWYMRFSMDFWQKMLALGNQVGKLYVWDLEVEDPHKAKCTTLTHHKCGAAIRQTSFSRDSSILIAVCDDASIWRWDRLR
T1 sequence (Q15022 whole entry partner): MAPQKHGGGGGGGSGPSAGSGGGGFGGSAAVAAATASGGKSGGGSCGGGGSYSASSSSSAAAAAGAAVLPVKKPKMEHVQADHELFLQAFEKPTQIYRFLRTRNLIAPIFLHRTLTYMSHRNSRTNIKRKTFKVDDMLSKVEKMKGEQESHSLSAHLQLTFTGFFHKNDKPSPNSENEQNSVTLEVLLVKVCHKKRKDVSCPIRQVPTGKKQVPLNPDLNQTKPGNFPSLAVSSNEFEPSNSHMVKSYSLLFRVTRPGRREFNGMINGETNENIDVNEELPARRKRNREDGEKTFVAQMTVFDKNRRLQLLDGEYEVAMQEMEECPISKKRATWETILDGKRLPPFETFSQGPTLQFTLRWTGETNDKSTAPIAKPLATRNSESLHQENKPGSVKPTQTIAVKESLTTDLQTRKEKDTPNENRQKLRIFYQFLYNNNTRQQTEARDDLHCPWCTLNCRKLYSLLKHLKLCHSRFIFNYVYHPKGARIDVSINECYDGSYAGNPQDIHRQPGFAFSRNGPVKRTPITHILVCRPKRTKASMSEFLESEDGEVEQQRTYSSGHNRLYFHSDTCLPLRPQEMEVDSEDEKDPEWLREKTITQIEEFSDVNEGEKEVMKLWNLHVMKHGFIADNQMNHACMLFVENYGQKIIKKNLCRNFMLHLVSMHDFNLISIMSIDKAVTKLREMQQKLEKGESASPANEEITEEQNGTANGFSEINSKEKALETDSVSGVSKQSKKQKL
T3 sequence (P45983 whole entry): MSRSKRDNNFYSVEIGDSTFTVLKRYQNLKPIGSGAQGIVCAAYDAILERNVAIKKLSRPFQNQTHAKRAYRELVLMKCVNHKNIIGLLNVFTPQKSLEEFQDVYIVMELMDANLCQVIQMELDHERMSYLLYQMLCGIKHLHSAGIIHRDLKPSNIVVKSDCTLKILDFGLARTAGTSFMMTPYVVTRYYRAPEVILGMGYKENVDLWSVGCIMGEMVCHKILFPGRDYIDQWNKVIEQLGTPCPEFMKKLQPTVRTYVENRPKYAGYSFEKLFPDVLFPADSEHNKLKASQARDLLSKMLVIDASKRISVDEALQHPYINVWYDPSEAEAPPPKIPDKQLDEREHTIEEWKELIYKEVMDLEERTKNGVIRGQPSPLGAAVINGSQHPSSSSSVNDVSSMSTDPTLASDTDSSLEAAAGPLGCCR
T2 sequence (P45984 whole entry): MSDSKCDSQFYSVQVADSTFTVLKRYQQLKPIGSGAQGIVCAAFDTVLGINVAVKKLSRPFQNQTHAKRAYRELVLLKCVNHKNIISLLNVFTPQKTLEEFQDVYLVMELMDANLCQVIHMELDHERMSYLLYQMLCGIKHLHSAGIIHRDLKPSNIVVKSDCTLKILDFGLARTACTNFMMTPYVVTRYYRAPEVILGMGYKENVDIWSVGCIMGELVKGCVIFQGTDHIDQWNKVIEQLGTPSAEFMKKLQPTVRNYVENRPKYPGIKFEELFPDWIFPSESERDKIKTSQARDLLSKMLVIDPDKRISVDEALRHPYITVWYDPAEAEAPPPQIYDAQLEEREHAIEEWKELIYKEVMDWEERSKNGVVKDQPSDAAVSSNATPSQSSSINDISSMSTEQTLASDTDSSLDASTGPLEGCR

| Structure (SMILES) | Target protein degradation range (EZH2) | JNK2 degradation range (JNK2) | DC50 (JNK2; read-out: JNK2 DC50 range) [nM] | JNK1 degradation range (JNK1) | DC50 (JNK1) [nM] |
| --- | --- | --- | --- | --- | --- |
| CCN(c1cc(-c2ccc(OCCOCCOCCOCCOCCOc3ccc(CCN4CC[C@H]5CCN(C(=O)[C@@H](NC(=O)[C@H](C)NC)C6CCCCC6)[C@H]5C4)cc3)cc2)cc(C(=O)NCc2c(C)cc(C)[nH]c2=O)c1C)C1CCOCC1 (racemic) [Example 8, 5-(4-[[1-(4-[2-[1-[(2S)-2-cyclohexyl-2-[(2S)-2-(methylamino)propanamido]acetyl]-octahydro-1H-pyrrolo[2,3-c]pyridin-6-yl]ethyl]phenyl)-1,4,7,10,13-pentaoxapentadecan-15-yl]oxy]phenyl)-N-[(4,6-dimethyl-2-oxo-1,2-dihydropyridin-3-yl)methyl]-3-[ethyl(oxan-4-yl)amino]-2-methylbenzamide] | C (degradation between 0% and 30%) | – | – | – | – |
| CCN(c1cc(-c2ccc(OCCOCCOCCOc3ccc(CCN4CC[C@H]5CCN(C(=O)[C@@H](NC(=O)[C@H](C)NC)C6CCCCC6)[C@H]5C4)cc3)cc2)cc(C(=O)NCc2c(C)cc(C)[nH]c2=O)c1C)C1CCOCC1 (racemic) [Example 9, 5-[4-(2-[2-[2-(4-[2-[1-[(2S)-2-cyclohexyl-2-[(2S)-2-(methylamino)propanamido]acetyl]-octahydro-1H-pyrrolo[2,3-c]pyridin-6-yl]ethyl]phenoxy)ethoxy]ethoxy]ethoxy)phenyl]-N-[(4,6-dimethyl-2-oxo-1,2-dihydropyridin-3-yl)methyl]-3-[ethyl(oxan-4-yl)amino]-2-methylbenzamide] | C (degradation between 0% and 30%) | – | – | – | – |
| CCN(c1cc(-c2ccc(OCCOCCOCCOc3ccc(-c4csc([C@@H]5CCCN5C(=O)[C@@H](NC(=O)[C@H](C)NC)C5CCCCC5)n4)c4ccccc34)cc2)cc(C(=O)NCc2c(C)cc(C)[nH]c2=O)c1C)C1CCOCC1 [Example 10, 5-[4-[2-(2-[2-[(4-[2-[(2S)-1-[(2S)-2-cyclohexyl-2-[(2S)-2-(methylamino)propanamido]acetyl]pyrrolidin-2-yl]-1,3-thiazol-4-yl]naphthalen-1-yl)oxy]ethoxy]ethoxy)ethoxy]phenyl]-N-[(4,6-dimethyl-2-oxo-1,2-dihydropyridin-3-yl)methyl]-3-[ethyl(oxan-4-yl)amino]-2-methylbenzamide] | B (degradation between 30% and 60%) | – | – | – | – |
| CCN(c1cc(-c2ccc(OCCOCCOCCOCCOCCOc3ccc(-c4csc([C@@H]5CCCN5C(=O)[C@@H](NC(=O)[C@H](C)NC)C5CCCCC5)n4)c4ccccc34)cc2)cc(C(=O)NCc2c(C)cc(C)[nH]c2=O)c1C)C1CCOCC1 [Example 11, 5-(4-[[1-(4-[2-[(2S)-1-[(2S)-2-cyclohexyl-2-[(2S)-2-(methylamino)propanamido]acetyl]pyrrolidin-2-yl]-1,3-thiazol-4-yl]naphthalen-1-yl)-1,4,7,10,13-pentaoxapentadecan-15-yl]oxy]phenyl)-N-[(4,6-dimethyl-2-oxo-1,2-dihydropyridin-3-yl)methyl]-3-[ethyl(oxan-4-yl)amino]-2-methylbenzamide] | B (degradation between 30% and 60%) | – | – | – | – |
| CN[C@@H](C)C(=O)N[C@H](C(=O)N1CCC[C@H]1c1nc(-c2ccc(OCCOCCO[C@H]3CC[C@H](Nc4nccc(-c5cnn(Cc6ccccc6)c5N(C)C)n4)CC3)c3ccccc23)cs1)C1CCCCC1 [Example 13, (2S)—N-[(1S)-1-cyclohexyl-2-oxo-2-[(2S)-2-(4-[4-[2-(2-[[(1r,4r)-4-([4-[1-benzyl-5-(dimethylamino)-1H-pyrazol-4-yl]pyrimidin-2-yl]amino)cyclohexyl]oxy]ethoxy)ethoxy]naphthalen-1-yl]-1,3-thiazol-2-yl)pyrrolidin-1-yl]ethyl]-2-(methylamino)propanamide] | – | A (degradation more than 60%) | 100 to 1000 | A (degradation more than 60%) | 1 to 100 |
| CN[C@@H](C)C(=O)N[C@H](C(=O)N1CCC[C@H]1c1nc(-c2ccc(OCCOCCOCCOC3CCC(Nc4nccc(-c5cnn(Cc6ccccc6)c5N(C)C)n4)CC3)c3ccccc23)cs1)C1CCCCC1 (stereo partly drawn) [Example 14, (S)—N—((S)-2-((S)-2-(4-(4-(2-(2-(2-((1r,4r)-4-(4-(1-benzyl-5-(dimethylamino)-1H-pyrazol-4-yl)pyrimidin-2-ylamino)cyclohexyloxy)ethoxy)ethoxy)ethoxy)naphthalen-1-yl)thiazol-2-yl)pyrrolidin-1-yl)-1-cyclohexyl-2-oxoethyl)-2-(methylamino)propanamide] | – | B (degradation between 30% and 60%) | – | A (degradation more than 60%) | 1 to 100 |
| CN[C@@H](C)C(=O)N[C@H](C(=O)N1CCC[C@H]1c1nc(-c2ccc(OCCOCCOCCOCCOC3CCC(Nc4nccc(-c5cnn(Cc6ccccc6)c5N(C)C)n4)CC3)c3ccccc23)cs1)C1CCCCC1 (stereo partly drawn) [Example 15, (2S)—N-[(1S)-1-cyclohexyl-2-oxo-2-[(2S)-2-[4-[4-([1-[(1r,4r)-4-([4-[1-benzyl-5-(dimethylamino)-1H-pyrazol-4-yl]pyrimidin-2-yl]amino)cyclohexyl]-1,4,7,10-tetraoxadodecan-12-yl]oxy)naphthalen-1-yl]-1,3-thiazol-2-yl]pyrrolidin-1-yl]ethyl]-2-(methylamino)propanamide] | – | B (degradation between 30% and 60%) | – | A (degradation more than 60%) | 100 to 1000 |
